{"source": "ChEMBL document CHEMBL1140899", "about": "“Computational studies of epidermal growth factor receptor: docking reliability, three-dimensional quantitative structure-activity relationship analysis, and virtual screening studies” (J Med Chem, 2009)", "note": "pIC50: −log10 of the molar value. Active and inactive are the calls of the source. No cut-off for these calls is given here.", "data": [{"molecular_target": "T1, Epidermal growth factor receptor (Homo sapiens, UniProt P00533)", "T1 sequence (P00533 whole entry)": "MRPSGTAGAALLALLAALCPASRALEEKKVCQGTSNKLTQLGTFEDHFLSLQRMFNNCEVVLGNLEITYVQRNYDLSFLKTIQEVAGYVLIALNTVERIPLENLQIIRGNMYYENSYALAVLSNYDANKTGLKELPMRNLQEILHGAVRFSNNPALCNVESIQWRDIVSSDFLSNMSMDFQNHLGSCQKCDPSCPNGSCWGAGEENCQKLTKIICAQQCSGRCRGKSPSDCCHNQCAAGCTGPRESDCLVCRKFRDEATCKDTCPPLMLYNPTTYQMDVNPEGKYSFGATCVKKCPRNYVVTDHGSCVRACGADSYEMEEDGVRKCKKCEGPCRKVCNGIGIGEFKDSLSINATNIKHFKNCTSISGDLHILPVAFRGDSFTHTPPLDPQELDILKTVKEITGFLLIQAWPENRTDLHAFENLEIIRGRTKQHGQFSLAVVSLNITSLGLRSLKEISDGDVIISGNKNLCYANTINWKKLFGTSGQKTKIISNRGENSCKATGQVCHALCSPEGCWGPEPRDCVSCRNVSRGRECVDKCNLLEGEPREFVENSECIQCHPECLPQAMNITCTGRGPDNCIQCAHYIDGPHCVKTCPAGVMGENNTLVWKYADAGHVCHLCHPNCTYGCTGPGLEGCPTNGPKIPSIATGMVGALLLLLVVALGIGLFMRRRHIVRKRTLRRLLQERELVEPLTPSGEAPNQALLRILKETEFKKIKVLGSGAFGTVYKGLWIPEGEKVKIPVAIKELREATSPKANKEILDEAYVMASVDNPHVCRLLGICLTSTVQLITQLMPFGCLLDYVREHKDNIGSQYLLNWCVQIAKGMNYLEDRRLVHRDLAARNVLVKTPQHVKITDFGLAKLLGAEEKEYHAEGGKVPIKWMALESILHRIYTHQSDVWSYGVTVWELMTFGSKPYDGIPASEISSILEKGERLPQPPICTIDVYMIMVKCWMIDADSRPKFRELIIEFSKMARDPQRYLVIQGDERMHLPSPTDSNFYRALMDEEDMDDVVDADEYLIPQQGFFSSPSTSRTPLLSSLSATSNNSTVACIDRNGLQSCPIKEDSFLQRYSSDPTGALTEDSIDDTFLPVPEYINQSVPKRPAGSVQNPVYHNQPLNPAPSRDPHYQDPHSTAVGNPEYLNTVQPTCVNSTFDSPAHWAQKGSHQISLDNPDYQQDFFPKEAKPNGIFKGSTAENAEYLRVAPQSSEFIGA", "assay": "Inhibition of human recombinant EGFR up to 100 uM", "conditions": "not given", "values": [{"smiles": "FC(F)(F)Oc1ccc(Nc2ccnc3cc(Cl)ccc23)cc1", "Activity": "inactive"}]}, {"molecular_target": "T1, Epidermal growth factor receptor", "assay": "not given", "conditions": "not given", "values": [{"smiles": "COc1cc2ncnc(Nc3ccc(F)c(Cl)c3)c2cc1CN(C)[C@@H](C)C(N)=O", "pIC50": 8.10}, {"smiles": "C=CC(=O)Nc1cc2c(Cc3cccc(Br)c3)ncnc2cc1OCCCCN(C)C", "pIC50": 8.41}, {"smiles": "C=CC(=O)Nc1cc2c(Cc3ccc(F)c(Br)c3)ncnc2cc1OCCCN1CCOCC1", "pIC50": 8.74}, {"smiles": "C=CC(=O)NC1=NC=C2N=CN=C(Nc3ccc(F)c(Cl)c3)C21", "note": "(stereo unspecified)", "pIC50": 9.11}, {"smiles": "C=CC(=O)NC1=CC=C2N=CN=C(Nc3cccc(C(F)(F)F)c3)C21", "note": "(stereo unspecified)", "pIC50": 9.04}, {"smiles": "COc1cc2nccc(Nc3ccc(F)c(Cl)c3)c2cc1NC(=O)/C=C/C(C)N(C)C", "note": "(stereo unspecified)", "pIC50": 5.28}, {"smiles": "COc1cc2ncnc(Nc3ccc(F)c(Cl)c3)c2cc1CN1CC[C@@H](C(N)=O)C1", "pIC50": 8.22}, {"smiles": "O=C(CCCN1Cc2cc3c(Nc4cccc(Br)c4)ncnc3cc21)N1CCOCC1", "pIC50": 8.06}, {"smiles": "CCOC(=O)/C=C/C(=O)Cc1ccc2ncnc(Nc3cccc(Br)c3)c2c1", "pIC50": 8.57}, {"smiles": "O=C(Nc1ccc(F)cc1)Nc1ncnc2nn3ccccc3c12", "pIC50": 5.00}, {"smiles": "C=CC(=O)Nc1cc2c(Cc3cccc(Br)c3)ncnc2cc1OCCCN1CCC(C)CC1", "pIC50": 8.77}, {"smiles": "O=C(O)/C=C/C(=O)Cc1ccc2ncnc(Nc3cccc(Br)c3)c2c1", "pIC50": 9.43}, {"smiles": "C=CC(=O)Nc1ccc2c(Nc3cccc(Br)c3)ncnc2c1", "pIC50": 9.60}, {"smiles": "C=CC(=O)Nc1nc2c(Cc3ccc(F)c(Cl)c3)ncnc2cc1/C=C/CCN1CCOCC1", "pIC50": 9.80}, {"smiles": "COc1cc2ncnc(Nc3cccc(C)c3)c2cc1OC", "pIC50": 8.34}, {"smiles": "C=CC(=O)NC1=CC=C2N=CN=C(Nc3ccc(OCc4ccccc4)cc3)C21", "note": "(stereo unspecified)", "pIC50": 8.44}, {"smiles": "C=CC(=O)Cc1cc2c(Nc3cccc(Br)c3)ncnc2cn1", "pIC50": 9.04}, {"smiles": "CN(N)C/C=C/C(=O)Nc1cc2c(Nc3cccc(Br)c3)ccnc2cn1", "pIC50": 8.07}, {"smiles": "C=CC(=O)Nc1ccc2ncnc(Cc3cccc(Br)c3)c2c1", "pIC50": 9.15}, {"smiles": "OCC(O)CN1Cc2cc3c(Nc4cccc(Br)c4)ncnc3cc21", "note": "(stereo unspecified)", "pIC50": 8.80}, {"smiles": "CS(=O)(=O)CCN(CCCCOc1ccc2ncnc(Nc3ccc(OCc4ccccc4)cc3)c2c1)C(=O)C(F)(F)F", "pIC50": 6.63}, {"smiles": "O=C(CCn1ncc2cc3c(Nc4cccc(Br)c4)ncnc3cc21)N1CCOCC1", "pIC50": 8.43}, {"smiles": "COC[C@H]1Oc2cc3ncnc(Nc4cccc(Cl)c4)c3cc2O[C@@H]1COC", "pIC50": 8.00}, {"smiles": "C=CC(=O)Nc1nc2c(Cc3ccc(F)c(Cl)c3)ncnc2cc1OCCCN1CCC(C)CC1", "pIC50": 8.18}, {"smiles": "C=CC(=O)Nc1ccc2ncnc(Cc3ccc(F)c(Cl)c3)c2n1", "pIC50": 9.12}, {"smiles": "CCOc1cc2nccc(Nc3cccc(Br)c3)c2cc1NC(=O)/C=C/CN1CCOCC1", "pIC50": 4.99}, {"smiles": "C/C=C/C(=O)Cc1ccc2ncnc(Nc3cccc(Br)c3)c2c1", "pIC50": 9.26}, {"smiles": "O=C(O)CN1Cc2cc3c(Nc4cccc(Br)c4)ncnc3cc21", "pIC50": 8.29}, {"smiles": "C=CC(=O)Nc1cc2c(Cc3cccc(Br)c3)ncnc2cc1SCCCN(CC)CC", "pIC50": 9.11}, {"smiles": "COc1cc2ncnc(Nc3ccc(F)c(Cl)c3)c2cc1CN(C(C)C)[C@@H](C)C(N)=O", "pIC50": "> 9.00"}, {"smiles": "C=CC(=O)Nc1nc2c(Cc3ccc(F)c(Cl)c3)ncnc2cc1OCCOC", "pIC50": 9.01}, {"smiles": "COc1cc2nccc(Nc3ccc(F)c(Cl)c3)c2cc1NC(=O)/C=C/C(C)N1CCOCC1", "note": "(stereo unspecified)", "pIC50": 4.98}, {"smiles": "N#Cc1cccc(NC(=O)Nc2ncnc3nn4ccccc4c23)c1", "pIC50": 5.00}, {"smiles": "C=CC(=O)C(C)c1cc2c(Nc3cccc(Br)c3)ncnc2cn1", "note": "(stereo unspecified)", "pIC50": 9.77}, {"smiles": "COc1cc2nccc(Nc3ccc(F)c(Cl)c3)c2cc1NC(=O)/C=C/CN1CCOCC1", "pIC50": 4.87}, {"smiles": "CC(C(=O)/C=C/C(=O)NCCCN(C)C)c1cc2c(Nc3cccc(Br)c3)ncnc2cn1", "note": "(stereo unspecified)", "pIC50": 8.84}, {"smiles": "O=C(/C=C/C(=O)NCCCn1ccnc1)Cc1cc2c(Nc3cccc(Br)c3)ncnc2cn1", "pIC50": 9.25}, {"smiles": "CN(C)CCCNC(=O)/C=C/C(=O)Cc1cc2c(Nc3cccc(Br)c3)ncnc2cn1", "pIC50": 8.96}, {"smiles": "C=CC(=O)Nc1ccc2ncnc(Cc3ccc(OCCN(C)C)c(Br)c3)c2c1", "pIC50": 7.57}, {"smiles": "C=C(C)C(=O)Cc1ccc2ncnc(Nc3cccc(Br)c3)c2c1", "pIC50": 8.92}, {"smiles": "O=C(Nc1ccc(Br)cc1)Nc1ncnc2nn3ccccc3c12", "pIC50": 5.00}, {"smiles": "C=CC(=O)Nc1cc2ncnc(Nc3ccc(F)c(Br)c3)c2[nH]1", "pIC50": 8.92}, {"smiles": "C=CC(=O)Nc1cc2c(Cc3ccc(F)c(Cl)c3)ncnc2cc1OCCCN1CCOCC1", "pIC50": 8.82}, {"smiles": "C=CC(=O)NC1=NC=C2N=CN=C(Nc3cccc(C)c3)C21", "note": "(stereo unspecified)", "pIC50": 9.32}, {"smiles": "CN1Cc2cc3c(Nc4cccc(Br)c4)ncnc3cc21", "pIC50": 9.10}, {"smiles": "C=CC(=O)NC1=CC=C2N=CN=C(Nc3ccc(Oc4ccccc4)cc3)C21", "note": "(stereo unspecified)", "pIC50": 8.24}, {"smiles": "C=CC(=O)Nc1cc2c(Cc3cccc(C)c3)ncnc2cc1OCCCN1CCC(C)CC1", "pIC50": 8.70}, {"smiles": "Brc1cccc(Nc2ncnc3cc4c(cc23)CN4)c1", "pIC50": 9.36}, {"smiles": "O=C(Nc1cccc([N+](=O)[O-])c1)Nc1ncnc2nn3ccccc3c12", "pIC50": 5.00}, {"smiles": "O=S(=O)(CO)Nc1cc2c(Nc3cccc(Br)c3)ncnc2cn1", "pIC50": 7.03}, {"smiles": "C=CC(=O)N(C)c1nc2c(Cc3ccc(F)c(Cl)c3)ncnc2cc1OCCCN1CCOCC1", "pIC50": 7.70}, {"smiles": "C=CC(=O)Nc1cc2c(Cc3cccc(C)c3)ncnc2cc1OCCCN1CCOCC1", "pIC50": 8.82}, {"smiles": "C=CC(=O)C(CCCN1CCOCC1)c1cc2c(Nc3cccc(Br)c3)ncnc2cn1", "note": "(stereo unspecified)", "pIC50": 8.57}, {"smiles": "O=C(/C=C/CC(=O)Nc1ccc2ncnc(Nc3cccc(Br)c3)c2c1)Nc1ccc2c(Nc3cccc(Br)c3)ncnc2c1", "pIC50": 9.35}, {"smiles": "C=CC(=O)NC1=NC=C2N=CN=C(Nc3ccc(F)c(Br)c3)C21", "note": "(stereo unspecified)", "pIC50": 9.14}, {"smiles": "O=C(O)CCNc1cc2ncnc(Nc3cccc(Br)c3)c2cn1", "pIC50": 9.22}, {"smiles": "FC(F)(F)c1ccc(-n2cnnc2SCc2nc(COc3c(Cl)cccc3Cl)no2)cc1", "pIC50": 5.20}, {"smiles": "COc1cc2ncnc(Nc3ccc(F)c(Cl)c3)c2cc1CNC(=O)[C@H]1CCCCN1C", "pIC50": 8.10}, {"smiles": "C=CC(=O)NC1=CC=C2N=CN=C(Nc3cccc(Cl)c3)C21", "note": "(stereo unspecified)", "pIC50": 8.80}, {"smiles": "C=CC(=O)Nc1cc2c(Cc3ccc(F)c(Cl)c3)ncnc2cc1OCCOCCCCO", "pIC50": 8.77}, {"smiles": "O=C(Nc1cccc(C(F)(F)F)c1)Nc1ncnc2nn3ccccc3c12", "pIC50": 5.00}, {"smiles": "CCN(CC)CCCNC(=O)/C=C/C(=O)Cc1cc2c(Nc3cccc(Br)c3)ncnc2cn1", "pIC50": 9.14}, {"smiles": "O=C(Nc1ccc(C(F)(F)F)cc1)Nc1ncnc2nn3ccccc3c12", "pIC50": 5.00}, {"smiles": "C=C=CC(=O)Cc1ccc2ncnc(Nc3cccc(Br)c3)c2c1", "pIC50": 8.80}, {"smiles": "C=CC(=O)Nc1cc2c(Cc3cccc(Br)c3)ncnc2cc1OCCCn1ccnc1", "pIC50": 8.52}, {"smiles": "C=CC(=O)NC1=CC=C2N=CN=C(Nc3cccc(C)c3)C21", "note": "(stereo unspecified)", "pIC50": 9.38}, {"smiles": "C=CC(=O)Nc1ccc2ncnc(Cc3cccc(C)c3)c2c1", "pIC50": 9.38}, {"smiles": "C/C=C/C(=O)Cc1cc2c(Nc3cccc(Br)c3)ncnc2cn1", "pIC50": 9.30}, {"smiles": "C=CC(=O)Nc1cc2ncnc(Nc3cccc(Br)c3)c2[nH]1", "pIC50": 8.96}, {"smiles": "COc1cc2ncnc(Nc3ccc(F)c(Cl)c3)c2cc1CN(C)[C@H](C)C(N)=O", "pIC50": 8.05}, {"smiles": "C=CC(=O)Nc1ccc2ncnc(Cc3ccc(F)c(Br)c3)c2c1", "pIC50": 9.16}, {"smiles": "C=CC(=O)Nc1ccc2ncnc(Cc3ccc(F)c(Cl)c3)c2c1", "pIC50": 9.12}, {"smiles": "C/C=C/C(=O)Nc1cc2c(Nc3ccc(F)c(Cl)c3)ccnc2cc1CC", "pIC50": 5.12}, {"smiles": "C=CC(=O)Nc1nc2c(Cc3ccc(F)c(Cl)c3)ncnc2cc1CCCCN1CCOCC1", "pIC50": 8.57}, {"smiles": "CCOC(=O)c1ccc(N2CCOCC2)c(NS(=O)(=O)c2cc(Br)c(Cl)s2)c1", "pIC50": 4.95}, {"smiles": "O=C(/C=C\\Cl)Cc1cc2c(Nc3cccc(Br)c3)ncnc2cn1", "pIC50": 9.16}, {"smiles": "O=C(Cc1c[nH]c2cc3ncnc(Nc4cccc(Br)c4)c3cc12)N1CCOCC1", "pIC50": 8.32}, {"smiles": "CC(=O)/C=C/C(=O)Cc1ccc2ncnc(Nc3cccc(Br)c3)c2c1", "pIC50": 8.92}, {"smiles": "CCOC(=O)/C=C/C(=O)Cc1cc2c(Nc3cccc(Br)c3)ncnc2cn1", "pIC50": 8.82}, {"smiles": "C=CC(=O)C(CCCN1CCOCC1)c1ccc2ncnc(Nc3cccc(Br)c3)c2c1", "note": "(stereo unspecified)", "pIC50": 8.48}, {"smiles": "CN(C)CCN1Cc2cc3c(Nc4cccc(Br)c4)ncnc3cc21", "pIC50": 7.39}, {"smiles": "COc1cc(NC(=O)/C=C/CN2CCOCC2)cc2c(Nc3cccc(Br)c3)ccnc12", "pIC50": 5.27}, {"smiles": "C=CC(=O)Nc1nc2c(Cc3ccc(F)c(Cl)c3)ncnc2cc1OC", "pIC50": 9.02}, {"smiles": "C/C=C/C(=O)Nc1ccc2c(Nc3cccc(Br)c3)ncnc2c1", "pIC50": 9.17}, {"smiles": "C=C(C)C(=O)Cc1cc2c(Nc3cccc(Br)c3)ncnc2cn1", "pIC50": 8.80}, {"smiles": "CN(C)c1cc2ncnc(Nc3cccc(Br)c3)c2cn1", "pIC50": 10.05}, {"smiles": "C=CC(=O)Nc1ccc2ncnc(Cc3ccc(CN(C)C)c(Br)c3)c2c1", "pIC50": 7.35}, {"smiles": "C=CC(=O)Nc1cc2ncnc(Nc3cccc(Cl)c3)c2cn1", "pIC50": 9.27}, {"smiles": "Nc1ncnc2nn3ccccc3c12", "pIC50": 5.00}]}, {"molecular_target": "T1, Epidermal growth factor receptor", "assay": "not given", "conditions": "at 100 µM", "units": {"inhibition": "%"}, "values": [{"smiles": "CC1=NNC2OC(N)=C(C#N)C(c3ccc4c(c3)OCO4)C12", "note": "(stereo unspecified)", "inhibition": 44}, {"smiles": "COc1cc2ncnc(Nc3cccc(C)c3)c2cc1OC", "inhibition": 100}, {"smiles": "CN1CCN(c2ccccc2/C=C2/C(=O)Nc3ccccc32)CC1", "inhibition": 55}, {"smiles": "FC(F)(F)c1ccc(-n2cnnc2SCc2nc(COc3c(Cl)cccc3Cl)no2)cc1", "inhibition": 77}, {"smiles": "O=c1[nH]nc(SCCS(=O)(=O)c2cccc(C(F)(F)F)c2)n1-c1ccc(OCc2ccccc2)cc1", "inhibition": 53}, {"smiles": "CCOC(=O)c1ccc(N2CCOCC2)c(NS(=O)(=O)c2cc(Br)c(Cl)s2)c1", "inhibition": 80}, {"smiles": "O=c1[nH]nc2n1-c1ccccc1SC2", "inhibition": 48}]}, {"molecular_target": "T1, Epidermal growth factor receptor", "assay": "Inhibition of human recombinant EGFR at 100 uM", "conditions": "not given", "units": {"inhibition": "%"}, "values": [{"smiles": "O=[N+]([O-])c1ccc(N2CCCC2)c2c(O)ncnc12", "inhibition": 0}, {"smiles": "COc1ccc([N+](=O)[O-])c2ncnc(O)c12", "inhibition": 0}, {"smiles": "Cc1cccc(Nc2ccc([N+](=O)[O-])c3ncnc(O)c23)c1", "inhibition": 0}, {"smiles": "Nc1ccc(Nc2ccc([N+](=O)[O-])c3ncnc(O)c23)cc1", "inhibition": 0}]}]}
